Assay results from the supplement of paper PMC5908809.

Key:
[1] = test system: normal NK cells expanded with K562-aAPC; assay: percent inhibition of viability; higher = more inhibition; details: 72 h, IL-2 2.5 ng/mL
Procedure: (§1)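 Drug sensitivity and resistance testing on K562-aAPC-expanded normal NK cells: 5 concentrations (10-fold steps over a 10,000-fold range), 72 h at 37 °C, viability by CellTiter-Glo normalised to DMSO and benzethonium chloride controls; DSS from the fitted curve.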

DERL-7 (IL-2 2.5 ng/mL) [2] = assay: as above; details: 72 h
IMC-1 (IL-2 20 ng/mL) [3] = assay: as above; details: 72 h
KAI3 (IL-2 2.5 ng/mL) [4] = assay: as above; details: 72 h
KHYG-1 (IL-2 2.5 ng/mL) [5] = assay: as above; details: 72 h
NK-92 (IL-2 2.5 ng/mL) [6] = assay: as above; details: 72 h
NK-YS (IL-2 2.5 ng/mL) [7] = assay: as above; details: 72 h
NKL (IL-2 2.5 ng/mL) [8] = assay: as above; details: 72 h
SNK-6 (IL-2 2.5 ng/mL) [9] = assay: as above; details: 72 h
YT (IL-2 2.5 ng/mL) [10] = assay: as above; details: 72 h
[11] = test system: normal primary NK cells, pool 1 (3 donors) (IL-2 2.5 ng/mL); assay: as above; details: 72 h
[12] = test system: normal primary NK cells, pool 1 (3 donors), resting (IL-2 0 ng/mL); assay: as above; details: 72 h
[13] = test system: normal primary NK cells, pool 2 (3 donors) (IL-2 2.5 ng/mL); assay: as above; details: 72 h
[14] = test system: normal primary NK cells, pool 3 (3 donors) (IL-2 2.5 ng/mL); assay: as above; details: 72 h
[15] = test system: normal NK cells expanded with K562-aAPC; assay: drug sensitivity score (DSS) (DSS units); higher = more sensitive; extreme values may be limits of the assay; details: 72 h; IL-2 2.5 ng/mL
Procedure: as §1

DERL-7 (IL-2 2.5 ng/mL) [16] = assay: as above; details: 72 h
IMC-1 (IL-2 20 ng/mL) [17] = assay: as above; details: 72 h
KAI3 (IL-2 2.5 ng/mL) [18] = assay: as above; details: 72 h
KHYG-1 (IL-2 2.5 ng/mL) [19] = assay: as above; details: 72 h
NK-92 (IL-2 2.5 ng/mL) [20] = assay: as above; details: 72 h
NK-YS (IL-2 2.5 ng/mL) [21] = assay: as above; details: 72 h
NKL (IL-2 2.5 ng/mL) [22] = assay: as above; details: 72 h
SNK-6 (IL-2 2.5 ng/mL) [23] = assay: as above; details: 72 h
YT (IL-2 2.5 ng/mL) [24] = assay: as above; details: 72 h
[25] = test system: normal primary NK cells, pool 1 (3 donors) (IL-2 2.5 ng/mL); assay: as above; details: 72 h
[26] = test system: normal primary NK cells, pool 1 (3 donors), resting (IL-2 0 ng/mL); assay: as above; details: 72 h
[27] = test system: normal primary NK cells, pool 2 (3 donors) (IL-2 2.5 ng/mL); assay: as above; details: 72 h
[28] = test system: normal primary NK cells, pool 3 (3 donors) (IL-2 2.5 ng/mL); assay: as above; details: 72 h

O=c1[nH]c(=O)n([C@H]2C[C@H](O)[C@@H](CO)O2)cc1F [Floxuridine] (max concentration tested 10000 nM)
percent inhibition of viability [%]
Details | 1 nM | 10 nM | 100 nM | 1000 nM | 10000 nM
DERL-7 (IL-2 2.5 ng/mL) [2] | -7.14 | 68.8 | 44.1 | 69.8 | 94.3
IMC-1 (IL-2 20 ng/mL) [3] | -2.91 | -1.68 | 33.5 | 96.1 | 95.4
KAI3 (IL-2 2.5 ng/mL) [4] | -6.31 | 31.3 | 63.4 | 63.7 | 45.6
KHYG-1 (IL-2 2.5 ng/mL) [5] | 0.05 | 58.9 | 96.8 | 99.1 | 95.1
NK-92 (IL-2 2.5 ng/mL) [6] | -16.2 | 25.2 | 72.5 | 82.6 | 78.8
NK-YS (IL-2 2.5 ng/mL) [7] | -4.95 | 13.6 | 73.5 | 84 | 78.7
NKL (IL-2 2.5 ng/mL) [8] | -14.5 | 15.7 | 48.8 | 68.5 | 82.9
SNK-6 (IL-2 2.5 ng/mL) [9] | 15.3 | 9.27 | 54 | 91.8 | 89.4
YT (IL-2 2.5 ng/mL) [10] | -3.94 | 0.97 | 9.92 | 50.2 | 57.9
[1] | -4.55 | -4.54 | 25.1 | 39.5 | 43.4
[11] | -6.27 | -7.98 | -5.58 | 6.75 | 5.43
[12] | -14.4 | -13.5 | -18.7 | 8.19 | 9.19
[13] | -16.1 | -13.4 | -7.65 | -1.05 | 8.12
[14] | -14 | -7.11 | -9.62 | -2.43 | -3.12

Details | drug sensitivity score
DERL-7 (IL-2 2.5 ng/mL) [16] | 25.9
IMC-1 (IL-2 20 ng/mL) [17] | 22
KAI3 (IL-2 2.5 ng/mL) [18] | 24
KHYG-1 (IL-2 2.5 ng/mL) [19] | 37.2
NK-92 (IL-2 2.5 ng/mL) [20] | 27.2
NK-YS (IL-2 2.5 ng/mL) [21] | 25.9
NKL (IL-2 2.5 ng/mL) [22] | 20.2
SNK-6 (IL-2 2.5 ng/mL) [23] | 23.3
YT (IL-2 2.5 ng/mL) [24] | 10.4
[15] | 10.9
[25] | 0
[26] | 0
[27] | 0
[28] | 0

CCCOc1ccn2c(C(C)=O)cc(-c3ccccc3S(C)(=O)=O)c2c1 [GSK2801] (max concentration tested 10000 nM)
percent inhibition of viability [%]
Details | 1 nM | 10 nM | 100 nM | 1000 nM | 10000 nM
DERL-7 (IL-2 2.5 ng/mL) [2] | 3.66 | 0.68 | 6.46 | 3.78 | 26.7
IMC-1 (IL-2 20 ng/mL) [3] | -5.58 | -4 | -5.67 | -6.64 | -7.6
KAI3 (IL-2 2.5 ng/mL) [4] | -0.66 | 1.6 | 3.26 | 1.19 | 13.8
KHYG-1 (IL-2 2.5 ng/mL) [5] | -6.23 | -1.14 | -4.5 | -0.03 | 3.02
NK-92 (IL-2 2.5 ng/mL) [6] | 13.2 | -11.5 | -4.85 | -3.31 | 1.17
NK-YS (IL-2 2.5 ng/mL) [7] | -2.46 | -2.16 | -2.35 | -0.19 | 12.5
NKL (IL-2 2.5 ng/mL) [8] | -3.96 | -3.81 | 7.18 | -1.4 | 23.3
SNK-6 (IL-2 2.5 ng/mL) [9] | 9.8 | 1.5 | 0.45 | 0.35 | 15.4
YT (IL-2 2.5 ng/mL) [10] | -2.89 | -0.79 | -3.2 | 1.49 | 5.33
[1] | 0.95 | -8.4 | -3.92 | -5.08 | 3.93
[11] | -8.08 | -8.31 | -8.28 | 1.69 | 18.7
[12] | -9.69 | -17.6 | -10.8 | 10.7 | 38
[13] | -4.35 | -4.55 | -1.61 | -2.13 | 14.3
[14] | -5.87 | 2.4 | -5.15 | -6.31 | 4.35

Details | drug sensitivity score
DERL-7 (IL-2 2.5 ng/mL) [16] | 1.67
IMC-1 (IL-2 20 ng/mL) [17] | 0
KAI3 (IL-2 2.5 ng/mL) [18] | 0.24
KHYG-1 (IL-2 2.5 ng/mL) [19] | 0
NK-92 (IL-2 2.5 ng/mL) [20] | 0
NK-YS (IL-2 2.5 ng/mL) [21] | 0.07
NKL (IL-2 2.5 ng/mL) [22] | 0.73
SNK-6 (IL-2 2.5 ng/mL) [23] | 0.29
YT (IL-2 2.5 ng/mL) [24] | 0
[15] | 0
[25] | 0.69
[26] | 3.45
[27] | 0.12
[28] | 0
